# Test results as given in PubChem BioAssay (NCI).
#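 Following 48 hours of exposure in 96-well plates, responses at five concentrations were used to interpolate endpoints linearly. GI50 is the concentration that inhibits growth by half. At the TGI there is no net growth.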
# Tests used:
# Experiment in all cases: NCI-60 cell line screen, 48 h
# A498 renal = tested on: A498 renal
# UACC-257 melanoma = tested on: UACC-257 melanoma
# MDA-MB-231 breast = tested on: MDA-MB-231 breast
# RPMI-8226 leukemia = tested on: RPMI-8226 leukemia
# CCRF-CEM leukemia = tested on: CCRF-CEM leukemia
# MOLT-4 leukemia = tested on: MOLT-4 leukemia
# SF-295 CNS = tested on: SF-295 CNS
# MCF7 breast = tested on: MCF7 breast
# MDA-MB-435 = tested on: MDA-MB-435
# NCI-H460 lung = tested on: NCI-H460 lung
# T-47D breast = tested on: T-47D breast
# IGROV1 ovarian = tested on: IGROV1 ovarian
# TK-10 renal = tested on: TK-10 renal
# SF-539 CNS = tested on: SF-539 CNS
# HS 578T breast = tested on: HS 578T breast
# A549 NSCLC = tested on: A549 NSCLC
# SW-620 colon = tested on: SW-620 colon
# NCI/ADR-RES ovarian = tested on: NCI/ADR-RES ovarian
# M14 melanoma = tested on: M14 melanoma
# KM12 colon = tested on: KM12 colon
# HCT-116 colon = tested on: HCT-116 colon
# NCI-H226 lung = tested on: NCI-H226 lung
# ACHN renal = tested on: ACHN renal
# SR leukemia = tested on: SR leukemia
# UO-31 renal = tested on: UO-31 renal
# SK-MEL-28 melanoma = tested on: SK-MEL-28 melanoma
# 786-0 renal = tested on: 786-0 renal
# HL-60(TB) leukemia = tested on: HL-60(TB) leukemia
structure (smiles),measurement,setting,value
COC(=O)[C@]12CC[C@@H](C)[C@H](C)[C@@H]1C1=CC[C@@H]3[C@@]4(C)CC(=O)[C@H](OC(=O)c5ccco5)[C@@]5(C)COC(=C45)C[C@@]3(C)[C@]1(C)CC2,GI50,A498 renal,13.3 µM
same,TGI,A498 renal,> 100 µM
same,GI50,UACC-257 melanoma,0.352 µM
same,TGI,UACC-257 melanoma,2.93 µM
same,GI50,MDA-MB-231 breast,5.11 µM
same,TGI,MDA-MB-231 breast,> 100 µM
same,GI50,RPMI-8226 leukemia,0.584 µM
same,TGI,RPMI-8226 leukemia,> 100 µM
same,GI50,CCRF-CEM leukemia,0.767 µM
same,TGI,CCRF-CEM leukemia,> 100 µM
same,GI50,MOLT-4 leukemia,0.669 µM
same,TGI,MOLT-4 leukemia,> 100 µM
same,GI50,SF-295 CNS,28.3 µM
same,TGI,SF-295 CNS,> 100 µM
same,GI50,MCF7 breast,0.741 µM
same,TGI,MCF7 breast,> 100 µM
same,GI50,MDA-MB-435,0.763 µM
same,TGI,MDA-MB-435,> 100 µM
same,GI50,NCI-H460 lung,0.568 µM
same,TGI,NCI-H460 lung,> 100 µM
same,GI50,T-47D breast,0.667 µM
same,TGI,T-47D breast,> 100 µM
same,GI50,IGROV1 ovarian,3.71 µM
same,TGI,IGROV1 ovarian,> 100 µM
same,GI50,TK-10 renal,30.8 µM
same,TGI,TK-10 renal,> 100 µM
same,GI50,SF-539 CNS,7.56 µM
same,TGI,SF-539 CNS,> 100 µM
same,GI50,HS 578T breast,> 100 µM
same,TGI,HS 578T breast,> 100 µM
same,GI50,A549 NSCLC,6.31 µM
same,TGI,A549 NSCLC,> 100 µM
same,GI50,SW-620 colon,0.902 µM
same,TGI,SW-620 colon,> 100 µM
same,GI50,NCI/ADR-RES ovarian,6.37 µM
same,TGI,NCI/ADR-RES ovarian,> 100 µM
same,GI50,M14 melanoma,0.654 µM
same,TGI,M14 melanoma,> 100 µM
same,GI50,KM12 colon,2.22 µM
same,TGI,KM12 colon,> 100 µM
same,GI50,HCT-116 colon,0.337 µM
same,TGI,HCT-116 colon,> 100 µM
same,GI50,NCI-H226 lung,83.1 µM
same,TGI,NCI-H226 lung,> 100 µM
same,GI50,ACHN renal,2.94 µM
same,TGI,ACHN renal,> 100 µM
same,GI50,SR leukemia,0.371 µM
same,TGI,SR leukemia,> 100 µM
same,GI50,UO-31 renal,1.7 µM
same,TGI,UO-31 renal,> 100 µM
same,GI50,SK-MEL-28 melanoma,0.579 µM
same,TGI,SK-MEL-28 melanoma,> 100 µM
same,GI50,786-0 renal,2.24 µM
same,TGI,786-0 renal,> 100 µM
same,GI50,HL-60(TB) leukemia,0.46 µM
